Reference: patent US12018001B2, “Pyrimidine cyclohexenyl glucocorticoid receptor modulators” (priority 2018, dated 2024)

Each compound was assayed against T1, GR (Homo sapiens, UniProt P04150) (assay: GR binding).
T1 sequence (P04150 1-777): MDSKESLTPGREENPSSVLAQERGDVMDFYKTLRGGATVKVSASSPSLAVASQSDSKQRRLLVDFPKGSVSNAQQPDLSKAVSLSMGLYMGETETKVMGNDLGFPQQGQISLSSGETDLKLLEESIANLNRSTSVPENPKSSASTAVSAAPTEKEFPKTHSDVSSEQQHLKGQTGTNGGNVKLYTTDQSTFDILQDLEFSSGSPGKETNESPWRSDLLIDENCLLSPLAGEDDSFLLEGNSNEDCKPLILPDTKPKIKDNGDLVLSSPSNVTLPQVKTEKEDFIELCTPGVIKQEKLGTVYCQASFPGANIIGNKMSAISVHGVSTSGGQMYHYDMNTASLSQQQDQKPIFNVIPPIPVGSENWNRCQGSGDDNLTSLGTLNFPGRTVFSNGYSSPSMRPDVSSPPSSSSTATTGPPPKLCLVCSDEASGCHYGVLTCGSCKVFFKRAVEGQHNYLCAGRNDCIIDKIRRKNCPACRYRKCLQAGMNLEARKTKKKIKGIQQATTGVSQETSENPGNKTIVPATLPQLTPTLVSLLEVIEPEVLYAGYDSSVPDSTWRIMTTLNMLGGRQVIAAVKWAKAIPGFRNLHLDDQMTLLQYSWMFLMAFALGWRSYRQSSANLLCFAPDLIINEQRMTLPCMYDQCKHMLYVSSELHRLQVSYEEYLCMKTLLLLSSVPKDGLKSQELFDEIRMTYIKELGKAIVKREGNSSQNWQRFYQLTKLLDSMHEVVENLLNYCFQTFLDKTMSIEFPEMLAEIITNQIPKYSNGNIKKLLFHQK

| SMILES | IC50 [nM] |
| --- | --- |
| O=c1[nH]c(C2CC=C(c3ccc(C(F)(F)F)c(Cl)c3)CC2)c(Cc2ccccc2)c(=O)[nH]1 (stereo not shown) [Example 69] | 3420 |
| O=c1[nH]c(C2CC=C(c3ccc(OC(F)F)cc3Cl)CC2)c(Cc2ccccc2)c(=O)[nH]1 (stereo not shown) [Example 108] | 5.4 |
| CC(C)Oc1cc(C(F)(F)F)ccc1C1=CCC(c2[nH]c(=O)[nH]c(=O)c2Cc2ccccc2)CC1 (stereo not shown) [Example 59] | 134 |
| CN(C)S(=O)(=O)c1cc(F)c(C2=CCC(c3[nH]c(=O)[nH]c(=O)c3Cc3ccccc3)CC2)c(F)c1 (stereo not shown) [Example 104] | 3160 |
| CS(=O)(=O)c1ccc(C2=CCC(c3[nH]c(=O)[nH]c(=O)c3Cc3ccccc3)CC2)c(Cl)c1 (stereo not shown) [Example 106] | 2.1 |
| Cn1ncc2ccc(C3=CCC(c4[nH]c(=O)[nH]c(=O)c4Cc4ccccc4)CC3)cc21 (stereo not shown) [Example 57] | 266 |
| CCS(=O)(=O)c1cc(F)c(C2=CCC(c3[nH]c(=O)[nH]c(=O)c3Cc3ccccc3)CC2)c(F)c1 (stereo not shown) [Example 105] | 71.6 |
| O=c1[nH]c(C2CC=C(c3ccc(OC4CC4)cc3Cl)CC2)c(Cc2ccccc2)c(=O)[nH]1 (stereo not shown) [Example 93] | 10 |
| O=c1[nH]c(C2CC=C(c3ccc4ncsc4c3)CC2)c(Cc2ccccc2)c(=O)[nH]1 (stereo not shown) [Example 64] | 142 |
| Cc1nn(C)c(C)c1C1=CCC(c2[nH]c(=O)[nH]c(=O)c2Cc2ccccc2)CC1 (stereo not shown) [Example 80] | 295 |
| O=c1[nH]c(C2CC=C(c3ccc(OCC4CC4)cc3C(F)(F)F)CC2)c(Cc2ccccc2)c(=O)[nH]1 (stereo not shown) [Example 95] | 23 |
| CN(C)c1ccc(C2=CCC(c3[nH]c(=O)[nH]c(=O)c3Cc3ccccc3)CC2)cn1 (stereo not shown) [Example 70] | 142 |
| CNS(=O)(=O)c1cc(C(F)(F)F)ccc1C1=CCC(c2[nH]c(=O)[nH]c(=O)c2Cc2ccccc2)CC1 (stereo not shown) [Example 96] | 5090 |

The compounds below were run against T2, glucocorticoid receptor (Homo sapiens, UniProt P04150) (assay: Hep G2 TAT assay: induction of TAT by dexamethasone in HepG2 cells).
T2 construct: host or cells: HepG2
T2 sequence (P04150 1-777): T1 sequence (P04150 1-777)
Format: cell-based
Procedure: Glucocorticoid mediated activation of TAT occurs by transactivation of glucocorticoid response elements in the TAT promoter by glucocorticoid receptor-agonist complex.
TAT activity was measured as outlined in the literature by A. Ali et al., J. Med. Chem., 2004, 47, 2441-2452.
HepG2 cells were cultured using MEME media supplemented with 10% (v/v) foetal bovine serum; 2 mM L-glutamine and 1% (v/v) NEAA at 37° C., 5%/95% (v/v) CO2/air. The HepG2 cells were counted and adjusted to yield a density of 0.125×10^6 cells/ml in RPMI 1640 without phenol red, 10% (v/v) charcoal stripped FBS, 2 mM L-glutamine and seeded at 25,000 cells/well in 200 μl into 96 well, sterile, tissue culture micro titre plates, and incubated at 37° C., 5% CO2 for 24 hours
Growth media was removed and replaced with assay media {RPMI 1640 without phenol red, 2 mM L-glutamine+10 μM forskolin}. […] Compounds were serially half log diluted in 100% (v/v) dimethylsulphoxide from a 10 mM stock.
HepG2 cells were then lysed with 30 μl of cell lysis buffer containing a protease inhibitor cocktail for 15 minutes at 4° C. 155 μl of substrate mixture was then added containing 5.4 mM Tyrosine sodium salt, 10.8 mM alpha ketoglutarate and 0.06 mM pyridoxal 5′ phosphate in 0.1 M potassium phosphate buffer (pH 7.4). After 2 hours incubation at 37° C. the reaction was terminated by the addition of 15 μl of 10 M aqueous potassium hydroxide solution, and the plates incubated for a further 30 minutes at 37° C. The TAT activity product was measured by absorbance at λ 340 nm.
[compound] and fitting the data to a 4 parameter logistic equation.

| SMILES | Ki [nM] |
| --- | --- |
| CC(C)Oc1ccc(C2=CCC(c3[nH]c(=O)[nH]c(=O)c3Cc3ccccc3)CC2)c(Cl)c1 (stereo not shown) [Example 52] | 568 |
| O=c1[nH]c(C2CC=C(c3ccc(OC(F)(F)F)cc3F)CC2)c(Cc2ccccc2)c(=O)[nH]1 (stereo not shown) [Example 67] | 120 |
| CCOc1ccc(C2=CCC(c3[nH]c(=O)[nH]c(=O)c3Cc3ccccc3)CC2)c(F)c1F (stereo not shown) [Example 91] | 247 |
| CNS(=O)(=O)c1ccc(C2=CCC(c3[nH]c(=O)[nH]c(=O)c3Cc3ccccc3)CC2)c(F)c1 (stereo not shown) [Example 98] | 110 |
| N#Cc1ccccc1C1=CCC(c2[nH]c(=O)[nH]c(=O)c2Cc2ccccc2)CC1 (stereo not shown) [Example 5] | 120 |
| COc1ccc(C2=CCC(c3[nH]c(=O)[nH]c(=O)c3Cc3ccccc3)CC2)c(C(F)(F)F)c1 (stereo not shown) [Example 17] | 280 |
| O=c1[nH]c(C2CC=C(c3ccc(Cl)cc3F)CC2)c(Cc2ccccc2)c(=O)[nH]1 (stereo not shown) [Example 81] | 400 |
| Cc1ccccc1C1=CCC(c2[nH]c(=O)[nH]c(=O)c2Cc2ccccc2)CC1 (stereo not shown) [Example 13] | 83 |
| O=c1[nH]c(C2CC=C(c3cccc(C(F)(F)F)c3Cl)CC2)c(Cc2ccccc2)c(=O)[nH]1 (stereo not shown) [Example 36] | 110 |
| O=c1[nH]c(C2CC=C(c3ccc(F)cc3Cl)CC2)c(Cc2ccccc2)c(=O)[nH]1 (stereo not shown) [Example 9] | 26 |
| CCOc1ccc(C2=CCC(c3[nH]c(=O)[nH]c(=O)c3Cc3ccccc3)CC2)c(F)c1 (stereo not shown) [Example 78] | 175 |
| CCS(=O)(=O)c1ccc(C2=CCC(c3[nH]c(=O)[nH]c(=O)c3Cc3ccccc3)CC2)c(F)c1 (stereo not shown) [Example 101] | 65 |
| CC(C)n1cc(C2=CCC(c3[nH]c(=O)[nH]c(=O)c3Cc3ccccc3)CC2)c(C(F)(F)F)n1 (stereo not shown) [Example 75] | 223 |
| Cc1cc(C2=CCC(c3[nH]c(=O)[nH]c(=O)c3Cc3ccccc3)CC2)n(C)n1 (stereo not shown) [Example 63] | 632 |
| COc1ccc(F)cc1C1=CCC(c2[nH]c(=O)[nH]c(=O)c2Cc2ccccc2)CC1 (stereo not shown) [Example 12] | 350 |
| CCOc1ccc(C2=CCC(c3[nH]c(=O)[nH]c(=O)c3Cc3ccccc3)CC2)c(Cl)c1F (stereo not shown) [Example 90] | 746 |
| CS(=O)(=O)c1ccc(C2=CCC(c3[nH]c(=O)[nH]c(=O)c3Cc3ccccc3)CC2)c(C(F)(F)F)c1 (stereo not shown) [Example 74] | 264 |
| N#Cc1cccc(C2=CCC(c3[nH]c(=O)[nH]c(=O)c3Cc3ccccc3)CC2)c1 (stereo not shown) [Example 33] | 740 |
| N#Cc1ccc(Cl)c(C2=CCC(c3[nH]c(=O)[nH]c(=O)c3Cc3ccccc3)CC2)c1 (stereo not shown) [Example 27] | 210 |
| O=c1[nH]c(C2CC=C(c3ccccc3C(F)(F)F)CC2)c(Cc2ccccc2)c(=O)[nH]1 (stereo not shown) [Example 11] | 14 |

| SMILES | Ki [nM] |
| --- | --- |
| Cn1cc(C2=CCC(c3[nH]c(=O)[nH]c(=O)c3Cc3ccccc3)CC2)c(C(F)(F)F)n1 (stereo not shown) [Example 77] | 170 |
| O=c1[nH]c(C2CC=C(c3cccnc3N3CCCCC3)CC2)c(Cc2ccccc2)c(=O)[nH]1 (stereo not shown) [Example 43, 5-Benzyl-6-(4-(2-(piperidin-1-yl)pyridin-3-yl)cyclohex-3-en-1-yl)pyrimidine-2,4(1H,3H)-dione] | 150 |
| O=c1[nH]c(C2CC=C(c3ccc(OCCO)cc3Cl)CC2)c(Cc2ccccc2)c(=O)[nH]1 (stereo not shown) [Example 86] | 1160 |
| O=C(c1ccc(C2=CCC(c3[nH]c(=O)[nH]c(=O)c3Cc3ccccc3)CC2)c(Cl)c1)N1CCCC1 (stereo not shown) [Example 42, 5-Benzyl-6-(2′-chloro-4′-(pyrrolidine-1-carbonyl)-2,3,4,5-tetrahydro-[1,1′-biphenyl]-4-yl)pyrimidine-2,4(1H,3H)-dione] | 33 |
| O=c1[nH]c(C2CC=C(c3ccc(C(F)(F)F)cc3F)CC2)c(Cc2ccccc2)c(=O)[nH]1 (stereo not shown) [Example 37] | 140 |
| CN1CCN(C(=O)c2ccc(C3=CCC(c4[nH]c(=O)[nH]c(=O)c4Cc4ccccc4)CC3)c(Cl)c2)CC1 (stereo not shown) [Example 41, 5-Benzyl-6-(2′-chloro-4′-(4-methylpiperazine-1-carbonyl)-2,3,4,5-tetrahydro-[1,1′-biphenyl]-4-yl)pyrimidine-2,4(1H,3H)-dione] | 480 |
| O=c1[nH]c(C2CC=C(c3ccc(F)cc3C(F)(F)F)CC2)c(Cc2ccccc2)c(=O)[nH]1 (stereo not shown) [Example 34] | 23 |
| O=c1[nH]c(C2CC=C(c3ccc(OCC4CC4)cc3Cl)CC2)c(Cc2ccccc2)c(=O)[nH]1 (stereo not shown) [Example 85, 5-benzyl-6-(2′-chloro-4′-(cyclopropylmethoxy)-2,3,4,5-tetrahydro-[1,1′-biphenyl]-4-yl)pyrimidine-2,4(1H,3H)-dione] | 1400 |
| CN(C)S(=O)(=O)c1ccc(C2=CCC(c3[nH]c(=O)[nH]c(=O)c3Cc3ccccc3)CC2)c(F)c1 (stereo not shown) [Example 99] | 730 |
| O=c1[nH]c(C2CC=C(c3ccc(OC4CC4)cc3F)CC2)c(Cc2ccccc2)c(=O)[nH]1 (stereo not shown) [Example 94] | 200 |
| N#Cc1ccc(C2=CC[C@@H](c3[nH]c(=O)[nH]c(=O)c3Cc3ccccc3)CC2)c(Cl)c1 (single isomer, unassigned) [Example 40] | 42 |
| CC(C)S(=O)(=O)c1ccc(C2=CCC(c3[nH]c(=O)[nH]c(=O)c3Cc3ccccc3)CC2)c(F)c1 (stereo not shown) [Example 102] | 270 |
| Cc1ccc(CO)cc1C1=CCC(c2[nH]c(=O)[nH]c(=O)c2Cc2ccccc2)CC1 (stereo not shown) [Example 22] | 330 |
| Cc1ncccc1C1=CCC(c2[nH]c(=O)[nH]c(=O)c2Cc2ccccc2)CC1 (stereo not shown) [Example 25] | 100 |
| N#Cc1cc(C(F)(F)F)ccc1C1=CCC(c2[nH]c(=O)[nH]c(=O)c2Cc2ccccc2)CC1 (stereo not shown) [Example 38] | 75 |
| Cn1ncc2c(C3=CCC(c4[nH]c(=O)[nH]c(=O)c4Cc4ccccc4)CC3)cccc21 (stereo not shown) [Example 61] | 485 |
| O=c1[nH]c(C2CC=C(c3ccc(C(F)(F)F)nc3N3CCCC3)CC2)c(Cc2ccccc2)c(=O)[nH]1 (stereo not shown) [Example 113] | 75 |
| O=c1[nH]c(C2CC=C(c3cccnc3N3CCCC3)CC2)c(Cc2ccccc2)c(=O)[nH]1 (stereo not shown) [Example 44] | 45 |
| Cn1ncc2cccc(C3=CCC(c4[nH]c(=O)[nH]c(=O)c4Cc4ccccc4)CC3)c21 (stereo not shown) [Example 89] | 433 |
